Measured values: PubChem BioAssay (NCI)
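Method: 48-hour compound exposure of cells in 96-well plates, five concentrations, linear interpolation of endpoints. GI50 is the concentration that inhibits growth by half. TGI: total growth inhibition.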

Columns and labels:
Assay in all cases: inhibition of tumour cell growth, NCI panel, 48 h
[1] = test system: CAKI-1 renal
[2] = test system: A549 NSCLC
[3] = test system: OVCAR-3 ovarian
[4] = test system: SNB-19 CNS
[5] = test system: COLO 205 colon
[6] = test system: SF-268 CNS
[7] = test system: SF-295 CNS
[8] = test system: EKVX NSCLC
[9] = test system: K-562 leukemia
[10] = test system: CCRF-CEM leukemia

SMILES	TGI [1] [µM]	TGI [2] [µM]	TGI [3] [µM]	TGI [4] [µM]	TGI [5] [µM]	TGI [6] [µM]	TGI [7] [µM]	TGI [8] [µM]	TGI [9] [µM]	TGI [10] [µM]	GI50 [1] [µM]	GI50 [9] [µM]	GI50 [2] [µM]	GI50 [3] [µM]	GI50 [4] [µM]	GI50 [5] [µM]	GI50 [6] [µM]	GI50 [7] [µM]	GI50 [8] [µM]	GI50 [10] [µM]
O=C(O)c1oc2ccc([N+](=O)[O-])c3c2c1CCC3	> 100	> 100	> 100	> 100	> 100	> 100	> 100	> 100												
C(=C1/CCCCC([n+]2ccccc2)=N1)/c1ccccc1	> 100	> 100	> 100		> 100	> 100	> 100	> 100	> 100	> 100										
C[P+](C)(CC(F)(F)F)c1ccccc1		> 100	> 100	> 100	> 100		> 100	> 100	> 100	> 100										
NC(=O)Cn1c(=O)[nH]c(=O)c2[nH]cnc21		> 100	> 100	> 100	> 100	> 100		> 100	> 100	> 100										
O=C1CCCC2COc3ccc(O)c1c32 (centres undefined)		> 100	> 100	> 100	> 100	> 100	> 100	> 100	> 100	> 100										
COc1ccc(/C=C/CO)cc1OC		> 100	> 100	> 100	> 100	> 100	> 100	> 100	> 100											
Cc1ccc(NC(=O)NC23CC4CC(CC(F)(C4)C2)C3)cc1		> 100	> 100	> 100	> 100			> 100	> 100	> 100										
COc1ccc2c(c1)[n+]([O-])c(-c1ccc(Cl)c(Cl)c1)c(N)[n+]2[O-]	> 100	> 100	68	> 100	33.6	> 100	> 100	> 100	> 100											
S=C1OC2C3C4CC5C3C(O1)C1C5C4C21 (centres undefined)	> 100	> 100	> 100	> 100	> 100	> 100	> 100	> 100		> 100										
ClCc1ccc(Cn2cnc3ncnc(Cl)c32)cc1	4.42	4.13	3.39	3.15	3.78	3.43	5.07	4.45	> 100		2.01	3.03	1.81	1.8	1.72	1.9	1.64	2.06	2.25	
Cc1cc(C(=O)NCCN(C)C)c2nc3ccccc3nc2c1	> 46.5	> 58.7	40.4	73.5	> 37.1		> 27.8	43.5	9.8											
CN1C=CN(Cc2ccc(-c3ccccn3)nc2)[CH-]1.CN1C=CN(Cc2ccc(-c3ccccn3)nc2)[CH-]1.[Au+3]	> 100	> 100	13.8	40	17.8	26.2	> 100		> 100	13.4	18.4	0.54	8.69	2.41	7.83	0.421	5.91	4.87		0.0834
COc1cc(SC)ccc1C(=O)N1CCCC(C)C1 (centres undefined)	> 100	> 100	> 100	> 100	> 100	> 100	> 100		> 100	> 100	> 100	58.7	> 100	> 100	> 100	> 100	> 100	> 100		> 100
Cc1ccc(NC(=O)CCC(=O)C(C#N)c2ccc(Cl)cc2)cc1C (centres undefined)	> 100	> 100	> 100	> 100		> 100	> 100	> 100	> 100	> 100										
COc1ccccc1OCC(O)CO (centres undefined)	> 100	> 100	> 100	> 100	> 100	> 100	> 100	> 100	> 100		> 100	> 100	> 100	> 100	> 100	> 100	> 100	> 100	> 100	
